The values that follow come from patent US20130209366A1, “Glutathione-Lanthionine Compounds and Methods Related Thereto” (OKLAHOMA MEDICAL RESEARCH FOUNDATION, priority 2010, published 2013).

For assay [1], the system named is SOD1G93A mice. The assay can be described thus: Rotarod motor function in SOD1G93A mice. The format is in vivo, mouse. As to the method: FIG. 8. […] Mice were treated with daily intraperitoneal injections of gLan, at the indicated dose, 5 days/week beginning at 90 d, and motor performance was evaluated by rotarod task as described in the examples.
(§1) Additional studies to explore effects of LKE in vivo, as a pharmacological candidate were conducted in a murine model for the motoneuron disease amyotrophic lateral sclerosis (ALS). In a first effort to assess LKE effects against a model of spontaneous neurodegeneration, SOD1G93A mutant mice modeling familial ALS [27-28] were treated with intraperitoneal (i.p.) injections of 100 mg/kg/d LKE in saline vehicle, from 90d throughout the remaining mouse lifespan. LKE is relevant to test in this mouse because the SOD1G93A mouse experiences robust neuroinflammation concomitant with TNFα-driven microglial activation, oxidative stress, and significant progressive distal axonopathy, all of which might be expected to be mitigated by LKE based on the ester's observed effects in cell culture. Mouse motor function was assessed as previously described using a standard rotarod test, at sequential 10d intervals (FIG. 6). Specific groups of mice were treated with LKE in saline or saline vehicle only.
(§2) Mice were injected with synthetic gLan in saline at 50-200 mg/kg/d, five days per week (Monday-Friday) beginning at 90d of age. Mice were assessed at baseline and every 10d for motor functional ability using the rotarod task as described previously.

Assay [2] relates to SOD1G93A mutant mice. The assay can be described thus: Onset of paralysis and survival in SOD1G93A mouse model of familial ALS. The assay is classed as in vivo. The following applies: for age at death (d) mean / onset of paralysis (d) mean: 5 days/week from 90d. As to the method:
as §1, with “only. […] Overall survival was increased by LKE based on logrank analysis (Table I).” for “only.”
as §2
Motor function dropped off rapidly amongst all groups at ages >110 d (FIG. 8). As in the case of LKE treatment, chronic intraperitoneal gLan at 100-200 mg/kg/dose tended to increase the age at which onset-of-paralysis was observed (based on a leg-clinch test) and the mean age of death of the SOD1G93A mice (Table II). When motor performance curves were interpolated to estimate the age at which mice lost an average 50% of baseline motor function, the 100 mg/kg/dose gLan treatment group reached this clinical endpoint approximately 18d later than the vehicle-treated group (FIG. 8).

Assay [3] deals with TNFα or LPS-treated microglia and macrophages. Particulars: cited from earlier work.
Assay [4] concerns HT-4 neurons. The following applies: cited from earlier work.
The target in assay [5] is syntaptosomal membranes. Particulars: cited from earlier work.
For assay [6], the system named is primary dissociated chick dorsal root ganglia (DRG) cultures. The assay can be described thus: Neurite length in primary dissociated chick dorsal root ganglia cultures. The following applies: 100 μM, treated at 2-3 DIV, 24 h. The format is cell-based. As to the method: FIG. 5. LK-5-ethyl ester (LKE) promotes neurite extension in primary, dissociated chick dorsal root ganglia cell cultures. Neurons were treated with LKE or saline vehicle for 24 h from DIV2-3 and quantitatively assessed for neurite morphometry as described in the text.
Cell culture studies were performed to assess LKE effects on neuritigenesis in primary dissociated chick dorsal root ganglia (DRG) cultures prepared essentially as described by Margiotta and Howard. Cultures were treated with LKE at 2-3 days in vitro (DIV), and neuron morphometry was quantified from bright field micrographs by a blinded observer using Metamorph® software (Molecular Devices, Sunnyvale Calif. USA).

For assay [7], the system named is NSC-34 cells. The following applies: cited from earlier work.
Assay [8] concerns NSC-34 motor neuron-like cells. The following applies: NSC-34 cells; cited from earlier work.
Setting [9] is: 100 mg/kg/d i.p. in saline from 90d, N = 15.

Each structure is given as a SMILES string. Marks after values point to notes of the source that are not given here.

As for `NC(CSC[C@H](NC(=O)CC[C@H](N)C(=O)O)C(=O)NCC(=O)O)C(=O)O` (some centres unmarked) [gLan, γGlu-Cys(S-Ala)-Gly], in assay [1] (100 mg/kg/dose, interpolated from motor performance curves), the “delay versus vehicle of the age at which mice lost an average 50% of baseline motor function” value is on record as “approximately 18 d”. Moreover, the “motor function (rotarod)” value in assay [1] (50-200 mg/kg/d, up to 110d or 120d, 100 mg/kg optimum, p<0.01 repeated measures ANOVA) was “dose-dependently improved”. Further, in assay [1] (100-200 mg/kg/d), the “average rotarod performance at 100d and 110d versus 90d baseline” value was “improved above the 90d baseline value”. In addition, the “motor function relative to saline treated control animals” value in assay [1] (100-200 mg/kg/d, ages <120d) is given as “twice”. Besides, the “age at death (d) mean” value was determined as 126.7 days in assay [2] (gLan 50 mg/kg daily i.p.), 138.3 days in assay [2] (gLan 100 mg/kg daily i.p.) and 133.1 days in assay [2] (gLan 200 mg/kg daily i.p.). For the same compound, the “onset of paralysis (d) mean” value in assay [2] (gLan 50 mg/kg daily i.p.) was found to be 111.6 days; in assay [2] (gLan 100 mg/kg daily i.p.) it was 123.8 days; in assay [2] (gLan 200 mg/kg daily i.p.), 116.7 days.
In the case of `O=C(O)C1=NC(C(=O)O)CSC1` (centres unmarked) [LK, 2H-1,4-thiazine-5,6-dihydro-3,5-dicarboxylic acid], the nitric oxide synthesis result in assay [3] is given as “suppressed”. The “protection against toxicity of high-dose glutamate” value in assay [4] is listed as “protected”. Moreover, in assay [5] (saturable, reversible with cold LK, read-out: Kd of [35S]LK binding to synaptosomal membranes), the Kd is 58 nM.
Consider `CCOC(=O)C1CSCC(C(=O)O)=N1` (centres unmarked) [LKE, LK-5-ethyl ester], for which the nitric oxide synthesis result in assay [3] is “suppressed”. Moreover, the “mean neurite length of dissociated DRG neurons” value in assay [6] is “significantly increased”. In addition, the “protection against toxicity of high-dose glutamate” value in assay [4] is on record as “protected”. Also, the “progression of clinical motoneuron disease” value in assay [1] (100 mg/kg/d i.p. from 90d, rotarod and leg-splay test) is “significantly slowed”. In addition, the “growth factor-stimulated outgrowth of neurites” value in assay [7] is reported as “promoted”. Moreover, in assay [2] (100 mg/kg/d i.p. from 90d, logrank analysis), the overall survival entry is “increased”. In addition, in assay [2] (setting [9]), the “maximum age at death” value worked out at 152 days, the “median age at death (d)” value is reported as 139† d and the “minimum age at death” value stood at 124 days. The “age of frank paralysis” value in assay [2] (100 mg/kg/d i.p. in saline from 90d, mean ± SEM, N = 15) turned out to be 121.6 ± 2.5 days. In assay [8], the “protection from toxicity of hydrogen peroxide (H2O2)” value is listed as “protected” and the “protection from toxicity of microglia-conditioned medium” value was “protected”.
As to `O=C(O)C1CSCC(C(=O)O)N1` (centres unmarked) [reduced LK, thiomorpholine dicarboxylic acid], in assay [5], the “displacement of [35S]LK” value is reported as “could not displace”.
